Results on 1 compound are retold here after patent US12559470B2, “FGFR inhibitors and uses thereof” (University of Southern California, priority 2018, dated 2026).

Each structure is given as a SMILES string.

The experiment concerns the target FGFR2 (Homo sapiens, UniProt P21802). The experiment is described as follows: In vitro inhibitory assay (IC50) against FGFR2. It counts as biochemical. The method, then:
The efficacy of the compounds to inhibit the kinase activity of FGFRs was measured by the determination of the IC50 value.
The results are listed in Table 4 expressed as IC50 values (the concentration of compound at which 50% of the enzyme activity is inhibited).

FGFR2, sequence (P21802 22-821): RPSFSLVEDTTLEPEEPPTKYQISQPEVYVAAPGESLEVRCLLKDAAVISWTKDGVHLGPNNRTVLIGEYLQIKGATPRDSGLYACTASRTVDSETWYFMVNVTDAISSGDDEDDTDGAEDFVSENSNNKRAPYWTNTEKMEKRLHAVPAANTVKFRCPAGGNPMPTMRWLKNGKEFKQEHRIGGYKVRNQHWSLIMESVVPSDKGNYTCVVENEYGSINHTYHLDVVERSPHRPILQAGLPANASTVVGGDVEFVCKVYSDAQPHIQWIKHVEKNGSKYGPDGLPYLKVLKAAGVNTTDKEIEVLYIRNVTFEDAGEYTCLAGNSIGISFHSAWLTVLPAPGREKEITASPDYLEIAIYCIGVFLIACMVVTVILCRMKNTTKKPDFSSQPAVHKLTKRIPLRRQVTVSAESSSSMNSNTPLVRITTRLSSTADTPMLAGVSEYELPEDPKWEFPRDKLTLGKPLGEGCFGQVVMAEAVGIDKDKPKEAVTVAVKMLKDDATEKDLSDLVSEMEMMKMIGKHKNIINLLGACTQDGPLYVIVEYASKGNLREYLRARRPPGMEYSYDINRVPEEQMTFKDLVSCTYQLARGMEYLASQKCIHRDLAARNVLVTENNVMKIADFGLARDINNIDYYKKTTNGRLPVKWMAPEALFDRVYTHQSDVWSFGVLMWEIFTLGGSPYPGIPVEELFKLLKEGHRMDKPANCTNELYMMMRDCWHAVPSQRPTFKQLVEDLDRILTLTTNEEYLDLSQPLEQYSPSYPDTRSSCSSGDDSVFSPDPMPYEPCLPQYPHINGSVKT

Compound `CCN1CCN(c2ccc(Nc3cc(-c4cccnc4Nc4c(Cl)c(OC)cc(OC)c4Cl)ncn3)cc2)CC1` [Compound 1, 6-(2-((2,6-dichloro-3,5-dimethoxyphenyl)amino)pyridin-3-yl)-N-(4-(4-ethylpiperazin-1-yl)phenyl)pyrimidin-4-amine] registered an IC50 of 6 nM.
